Reference: patent publication US20090317376A1, “Compositions And Methods For Lipo Modeling” (Georgetown University MEDICAL SCHOOL, priority 2005, published 2009)
Entries after “also recorded” stand apart in the source; their conditions may differ.

Tested on: abdominal fat pad
Test: Local NPY or Y2R antagonist treatment of the abdominal fat pad (ob/ob, WT, eNOS−/− mice)
Type: in vivo
Details: for capillary density / density of von Willebrand factor positive microvessels in abdominal fat: Y2R antagonist intra-fat vs vehicle; for fat in the region of the pellet (MRI thresholded for fat): compared to Placebo pellets, FIG. 9; for adipocyte number and size, Y2R staining in subcutaneous abdominal fat pad (immunohistochemistry): FIG. 10
Description: Eight week old ob/ob mice are used to study the growth of adipose tissue when treated with growth factor NPY versus antagonist. Whether the Y2R antagonist causes regression of fat deposits is determined using an antagonist in older 3-6 month old ob/ob mice. […] Fat pads (subcutaneous abdominal, omental, subcutaneous, sternal, and interscapular) are harvested and examined to determine whether there is hyperplasia, hypertrophy, or apoptosis of the fat cells. Whether NPY-mediated angiogenesis is involved in adipose tissue growth is determined. The anti-angiogenic effects and consequences of Y2R antagonist on adipose tissue growth is determined by subcutaneous injections of Y2R antagonist BIIE0246 (0.2 ml, 1 μM, daily/14 days) periabdominally into the abdominal fat pad or subcutaneous implantation of a slow-release pellet containing BIE0246 (10 μg/14 days) followed by an evaluation of the fat deposits by MRI. These fat pads are then harvested, weighed, and stained for endothelial markers and NPYRs. Fat pads are further characterized by RT-PCR, quantitative real-time PCR, and ELISA.
NPY slow-release pellets (1 μg/14 days) are inserted subcutaneously into the abdominal fat pad of ob/ob, C57BL/6 and SV129 WT mice. […] NPY pellets are also inserted into eNOS^−/− -mice. […] Specific peptide Y2R antagonist, BIIE0246, is subcutaneously injected periabdominally (0.2 ml, 1 μM, daily/14 days) or is given in the form of a slow release pellet (10 μg/14 days). […] Changes in visceral fat are visualized by MRI and quantified by volumetric calculations (FIG. 9). Fat pad weight is also measured upon euthanasia of the mice (FIG. 8).
In vivo treatment of murine model of obesity with antagonist: 6-week-old mice from four murine strains: C57BL-6, ob/ob, SV129, and eNOS^−/− are used. The mice are separated into treatment groups to compare the effects of diet, stress, NPY and specific receptor antagonists. The mice are weighed every other day during the course of the treatment. Control groups for the transgenic mice are matched by background strain, age, and gender. WT C57BL/6 mice (a background strain predisposed to weight gain [64]) is fed a “comfort food diet” consisting of lard and sugar and subjected to cold stress (1 hour in a cage with 1 cm of ice and water at the base of the cage). NPY is delivered locally by the implantation of a NPY slow-release pellet ([…]) into the abdominal fat pad. NPY receptor antagonists or antisense ODN is delivered by rotating daily subcutaneous injections (0.2 ml, 1 μM, daily/14 days) in the abdominal region. 20-mer phosphorothioate oligonucleotide antisense, targeted forward from rat Y2-gene transcription initiation codon (5-[…]-3′) (Molecular Research Laboratories, Herndon, Va.) is used. The scrambled antisense sequence contains some modified deoxynucleotides in a random order (5′-[…]-3′).
Tissue sample collection and processing: After treatment, fat pads are harvested from: 1) subcutaneous abdominal, 2) intra-abdominal (omental), 3) inguinal, 4) interscapular. The total central fat (abdominal region only) weight (FW) and FW to percent of body weight (F/B) is measured. The adipose tissue is processed for paraffin embedding and sections, […], are collected on glass slides for immunohistochemistry. 50 mg of tissue is used for quantitative real-time RT-PCR.
Magnetic Resonance Imaging (MRI): A Brukker 7-Tesla small-animal magnetic resonance imager coil is used to visualize and noninvasively quantitate various fat depots. A 3-dimensional (3D) T2-weighted (T2W) imaging protocol optimized for high contrast fat-imaging is implemented. […] Quantification of the total body fat as well as separate specific fat depots is calculated using thresholding and voxel count plugins from NIH image J software. VolumeJ is used to render, in a 3D image, the various fat depots.

[1] = 8-week old ob/ob mice, s.c. 0.2 ml, 1 μM, daily/14 days or pellet 10 μg/14 days, vs saline/PLC
[2] = BIIE0246 1 μM/day s.c. into the abdominal pads, within 2-weeks
[3] = NPY 1 μg/14 day-pellet, both obese and lean mice
[4] = NPY slow-release pellet 1 μg/14 days vs placebo, ob/ob, C57BL/6 and SV129 WT mice

Row | Molecule | decrease in F/B [1] [%] | decrease in FW [1] [%] | decrease of abdominal pad volume [2] [%] | decrease of abdominal pad weight [2] [%] | capillary density / density of von Willebrand factor positive microvessels in abdominal fat (listed as Y2R antagonist) | capillary density / density of von Willebrand factor positive microvessels in abdominal fat (listed as Y2R-antagonist) | fat in the region of the pellet (MRI thresholded for fat) | TUNEL-positive staining of endothelial cells and adipocytes (intra-fat injections of Y2R antagonist) | adipocyte number and size, Y2R staining in subcutaneous abdominal fat pad (immunohistochemistry) (ob/ob mice) | subcutaneous abdominal adipose tissue volume (MRI) [3] | subcutaneous abdominal adipose tissue weight (g) [3] | WAT cellularity, proliferation of small adipocytes (NPY in WT mice) | FW to body weight ratio (F/B) (NPY pellet, eNOS−/− mice) | total central fat weight (FW) / fat pad weight (NPY pellet, eNOS−/− mice) | FW to body weight ratio (F/B) [4] | total central fat weight (FW) / fat pad weight [4] | adipogenic activity in eNOS−/− mice (mice deficient in endothelial nitric oxide synthase) | visceral fat (ob/ob mice, NPY, FIG. 8)
1 | N=C(N)NCCC[C@H](NC(=O)CC1(CC(=O)N2CCN(C3c4ccccc4NC(=O)c4ccccc43)CC2)CCCC1)C(=O)NCCn1c(=O)n(-c2ccccc2)n(-c2ccccc2)c1=O (some centres unmarked) [BIIE0246] | 40 | 40 | 50 | 50 | decreased the density of von Willebrand-positive microvessels | significant decrease in capillary density | decreased fat | increasing TUNEL-positive staining | fewer but larger adipocytes and fewer Y2Rs |  |  |  |  |  |  |  |  | 
2 | neuropeptide Y [NPY] |  |  |  |  |  |  | increased fat |  | greater number of smaller adipocytes | significantly increased | significantly increased | mimicked | no significant weight gain | no significant weight gain | significant increase | significant increase; also recorded: Increase of fat pad weight | resistant to NPY's adipogenic activity | increases visceral fat
